Measurements reported in PMC8662641, “Site-Specific Labeling of Endogenous Proteins Using CoLDR Chemistry” (Journal of the American Chemical Society, 2021).

How the values were obtained:
primary mouse B cells = assay: B-cell response experiment (CD86 after anti-IgM); format: cell-based; conditions: 24 h treatment, 1–1000 nM
Protocol: Splenic cells from C57BL/6 mice were isolated by forcing spleen tissue through the mesh into PBS containing 2% fetal calf serum and 1 mM EDTA, and red blood cells were depleted by lysis buffer. […] Following a 24 h incubation, cells were stimulated with anti-IgM overnight (5 μg/mL, Sigma-Aldrich). […] Single-cell suspensions were analyzed by a flow cytometer (CytoFlex, Beckman Coulter).

BTK kinase domain [1] = target: T1, BTK kinase domain (Homo sapiens, UniProt Q06187); assay: Labeling of recombinant BTK by intact protein LC/MS; format: binding; set-up: BTK kinase domain was expressed and purified as previously reported; made in house; conditions: BTK 10.7 µM, 20 µM compound, 1 hour
BTK kinase domain [2] = target: T1, BTK kinase domain; assay: MS/MS site-of-labeling analysis of BTK tryptic peptides; format: binding; set-up: BTK kinase domain was expressed and purified as previously reported; made in house
Protocol: 100 μl of 5 μM Recombinant BTK kinase domain was incubated in 20 mM Tris with 50 μM of 1b or DMSO. The compounds were then removed by methanol-chloroform (400 μL MeOH+100 μL CHCl3+300 μL H2O) precipitation of the protein. The dry pellet was dissolved in 50 μl of 50 mM Tris pH 8 + 5% SDS and heated to 95 °C for 6 min. The concentration of the protein was estimated using BCA assay (using BSA as the standard). 2 μg each sample were diluted to 15 μl with Tris 50 mM pH 8 + 5% SDS, reduced with DTT (0.75 μl of 0.1 M in 5% SDS/Tris 50 mM pH 8, 45 min 65 °C), cooled to room temperature, then alkylated with 0.75 μl of 0.2 M iodoacetamide in water (30 min room temperature in the dark). The protein was then isolated and trypsinized on s-traps (Protifi) according to the manufacturer's instructions. Triplicates were prepared for each […]
ULC/MS grade solvents were used for all chromatographic steps. Each sample was loaded using split-less nano-Ultra Performance Liquid Chromatography (10 kpsi nanoAcquity; Waters, Milford, MA, USA). The mobile phase was: A) H2O + 0.1% formic acid and B) acetonitrile + 0.1% formic acid. Desalting of the samples was performed online using a reversed-phase Symmetry C18 trapping column (180 µm internal diameter, 20 mm length, 5 µm particle size; Waters). The peptides were then separated using a T3 HSS nano-column (75 µm internal diameter, 250 mm length, 1.8 µm particle size; Waters) at 0.35 µL/min. Peptides were eluted from the column into the mass spectrometer using the following gradient: 4% to 30%B in 155 min, 35% to 90%B in 5 min, maintained at 90% for 5 min and then back to initial conditions.
The nanoUPLC was coupled online through a nanoESI emitter (10 μm tip; New Objective; Woburn, MA, USA) to a quadrupole orbitrap mass spectrometer (Q Exactive HFX, Thermo Scientific) using a FlexIon nanospray apparatus (Proxeon).
Data was acquired in data dependent acquisition (DDA) mode, using a Top10 method. MS1 […]
maximum injection time was set to 60msec. MS2 resolution was set to 15,000, quadrupole isolation 1.7 m/z, AGC of 1e5, dynamic exclusion of 45 sec and maximum injection time of 60 […]
Analysis was done using MaxQuant 1.6.3.4. The sequence of BTK was used for the analysis. The digestion enzyme was set to Trypsin with a maximum number of missed cleavages of 0.
Carbamidomethyl and the modification by the molecule were included as variable modifications on cysteine. The “Re-quantify” option was enabled. Contaminants were included. Peptides were searched with a minimum peptide length of 7 and a maximum peptide mass of 4,500 Da. “Second peptides” were enabled and “Dependent peptides” were disabled. The option “Match between runs” was enabled with a Match time window of 0.7 min and an alignment window of 20 min. An FDR of 0.01 was used for Protein FDR, PSM FDR and XPSM FDR. The triplicate measured for each compound (or for DMSO-treated protein) was analyzed separately.
Following MaxQuant analysis, only fully cleaved peptides were quantified and cysteine-containing peptides that were not modified by either iodoacetamide or compound were ignored.
The intensity for each peptide was calculated as the average of the three triplicates. If the intensity was zero for one of the replicates the peptide was ignored. The intensities for the non-cysteine containing peptides were averaged for each data set and used to normalize the intensity of cysteine-containing peptides. Estimation of the extent of labeling of cysteine-containing peptides in the sequence was done by comparing the intensity of carbamidomethyl-modified peptides between the DMSO and molecule-treated samples. MS/MS spectra for the carbamidomethyl-modified and molecule modified peptides were extracted using Skyline. […]
The obtained

T1 sequence (Q06187 402-655 limits assumed): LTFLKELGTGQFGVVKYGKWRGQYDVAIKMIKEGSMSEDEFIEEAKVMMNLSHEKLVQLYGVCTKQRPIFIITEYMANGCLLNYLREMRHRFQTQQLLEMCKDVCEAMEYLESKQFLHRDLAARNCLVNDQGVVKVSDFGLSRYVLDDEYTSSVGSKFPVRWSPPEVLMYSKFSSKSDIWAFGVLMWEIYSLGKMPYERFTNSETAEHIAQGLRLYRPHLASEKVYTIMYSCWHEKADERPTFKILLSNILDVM

In the case of `C#CCCNC(=O)C(=C)CN1CCC[C@@H](n2nc(-c3ccc(Oc4ccccc4)cc3)c3c(N)ncnc32)C1` [1b], the “B cell activation (CD86 expression) after anti-IgM” value (primary mouse B cells) is reported as “did not inhibit the activation of B cells”, the “labeling of BTK (SPR sample preparation)” value (BTK kinase domain [1]) is reported as 100% and the “site of modification on BTK” value (BTK kinase domain [2]; LC/MS/MS of tryptic peptides) is reported as “Cys481”. The “1b/DMSO ratio after correction” value (BTK kinase domain [2]; iodoacetamide labeled peptide 457-466 LVQLYGVCTK) was 0.891, the “1b/DMSO ratio after correction” value (BTK kinase domain [2]; iodoacetamide labeled peptide 467-487 QRPIFIITEYMANGCLLNYLR) was 0.092 and the “1b/DMSO ratio after correction” value (BTK kinase domain [2]; iodoacetamide labeled peptide 493-503 FQTQQLLEMCK) was 0.469. For the same compound, the “1b/DMSO ratio after correction” value (BTK kinase domain [2]; iodoacetamide labeled peptide 504-515 DVCEAMEYLESK) was 0.413, the “1b/DMSO ratio after correction” value (BTK kinase domain [2]; iodoacetamide labeled peptide 526-536 NCLVNDQGVVK) was 0.724 and the “1b/DMSO ratio after correction” value (BTK kinase domain [2]; iodoacetamide labeled peptide 626-637 VYTIMYSCWHEK) was 0.735.
